Test [1] deals with T1, IDO1 (Homo sapiens, UniProt P14902). The test is described as follows: IDO1 human whole blood assay. It counts as cell-based. Further details: Human whole blood was drawn in sodium heparin coated tubes from healthy internal donors; from tissue; host or cells: human whole blood from healthy donors, stimulated with LPS/IFNγ. As to conditions: stimulant 100 ng/mL final, 18 h, kynurenine by LC/MS/MS, read-out: Human Whole Blood Potency, IC50. The procedure:
IDO1 Human Whole Blood Assay
Compounds to be tested were serially diluted in ten 3-fold steps in DMSO starting from 10 mM. 3 μL of compound dilutions or DMSO alone were then dispensed from the dilution plate into a polypropylene 96-well assay plate containing 97 μL of RPMI medium using an Echo 555 acoustic liquid handler (Labcyte). Lipopolysaccharide (LPS) induced IFNγ was prepared in RPMI medium to a 10× of final conc. (1000 ng/mL), final concentration is 100 ng/mL.
Human whole blood was drawn in sodium heparin coated tubes from healthy internal donors. 240 μL of blood was transferred to each of the wells of a v-bottom 96 well plate. 30 μL of compound was transferred from intermediate dilution plate, and incubated for 15 min. 30 μL from stimulants was then transferred to blood and mixed thoroughly. Plate was covered with breathable membrane and incubated at 37° C. for overnight (18 h).
On day 2, isotope labeled standard solutions of kunurenine and tryptophan was made in water at 10× concentration and 30 μL was added to the blood at 3 μM final concentration. The assay plates were centrifuged at 300×G for 10 min with no brake to separate plasma from red blood cells. 60 μL of plasma samples was removed without disturbing red blood cells. Plasma was diluted with RPMI in 1:1 ratio and proteins were precipitated out with two volumes of Acetonitrile. The plates were centrifuged at 4000×G for 60 min. 20 μL of supernatant was carefully transferred to a 384 well plate containing 40 μL of 0.1% formic acid in water and analyzed by LC/MS/MS.
LC/MS/MS analyses were performed using Thermo Fisher's LX4-TSQ Quantum Ultra system. This system consists of four Agilent binary high-performance liquid chromatography (HPLC) pumps and a TSQ Quantum Ultra triple quadrupole MS/MS instrument. For each sample, 5 μL were injected onto an Atlantis T3 column (2.1 mm×150 mm, 3 μm particle size) from Waters. The mobile phase gradient pumped at 0.8 mL/min was used to elute the analytes from the column at 25° C. […] Compounds were titrated and IC50's were calculated by 4 parameter sigmoidal curve fitting formula.

Test [2] addresses T1, IDO1. The test is described as follows: IDO1 cellular assay in HeLa cells stimulated with IFNγ. As to conditions: IFNγ 100 ng/mL, 300 uM L-tryptophan, about 48 hours, fluorescence readout, read-out: HeLa Cell Potency, IC50. In kind it is cell-based. The procedure: Biological Assays IDO1 Cellular Assay in HeLa Cells Stimulated with IFNγ
HeLa cells were cultured in complete HeLa culture medium (90% EMEM, 10% heat-inactivated fetal bovine serum) and expanded to about 1×10^9 cells. The cells were then collected and frozen down at 1×10^7 cells/vial in 1 mL frozen medium (90% complete HeLa culture medium, 10% DMSO).
Compounds to be tested were serially diluted in ten 3-fold steps in DMSO starting from 10 mM DMSO stocks in Echo low volume plate(s). Compound dilutions or DMSO alone were then dispensed from the dilution plate(s) into Greiner black 384-well assay plate(s) (catalog #781086, 50 nL/well) using an Echo 550 acoustic liquid handler (Labcyte).
Frozen HeLa cells were thawed and transferred into HeLa assay medium (99% complete HeLa culture medium, 1% Pen/Strep) with 20 mL medium/vial of cells. The cells were spun down at 250 g in a table top centrifuge for 5 min and suspended in same volume of HeLa assay medium. The cells were then counted and adjusted to a density of 2×10^5 cells/mL in HeLa assay medium. Sterile L-tryptophan were added to the cells with final concentration of 300 uM L-tryptophan. A small aliquot (2 mL/plate) of HeLa cells were set aside and were not treated with IFNγ, to serve as the Max-E control.
HeLa cells with and without IFNγ were dispensed to the respective wells of 384-well assay plates containing the compounds. The plates were incubated for about 48 hours at a 37° C., 5% CO2 incubator. Afterwards, 12 μL of 0.5 M methyl isonipecotate in dimethyl sulfoxide were added into each well and the plates were sealed and incubated at 37° C. without CO2 overnight. The plates were centrifuged for 1 min at 200×g. The resulting fluorescence was measured in a Spectramax plate reader (Molecular Devices) with a 400 nm excitation filter and a 510 nm emission filter.
The fluorescence intensity of each well was corrected for the background observed in wells with non-IFNγ-treated cells and was expressed as a fraction of the intensity observed in wells of IFNγ-treated cells and DMSO only. Potencies were calculated by linear least squares fit to the four parameter logistic IC50 equation.

Molecules are shown by their SMILES.

T1 sequence (P14902 whole entry): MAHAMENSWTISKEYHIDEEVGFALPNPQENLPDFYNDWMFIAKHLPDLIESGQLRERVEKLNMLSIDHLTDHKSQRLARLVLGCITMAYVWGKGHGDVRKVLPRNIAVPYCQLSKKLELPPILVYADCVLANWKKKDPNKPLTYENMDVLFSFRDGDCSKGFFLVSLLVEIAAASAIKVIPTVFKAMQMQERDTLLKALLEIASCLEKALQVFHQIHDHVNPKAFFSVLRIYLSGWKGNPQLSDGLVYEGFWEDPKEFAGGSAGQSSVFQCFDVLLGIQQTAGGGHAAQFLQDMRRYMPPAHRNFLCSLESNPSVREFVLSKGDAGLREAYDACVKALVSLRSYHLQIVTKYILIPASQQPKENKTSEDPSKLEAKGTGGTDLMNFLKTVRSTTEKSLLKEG

For the compound `O=C(NC1(c2ccc3c(n2)CCC[C@H]3Oc2cccc(Cl)c2)CC1)c1ccc(F)cc1` (single isomer, unassigned) [Example 2], the 50% inhibitory concentration (IC50) – broadly, the concentration that gives 50% inhibition – on IDO1 [1] is 864 nM; on IDO1 [2], 2.98 nM.
Turning to `O=C(NC1(c2ccc3c(n2)CCC[C@@H]3Oc2cccc(Cl)c2)CC1)c1ccc(F)cc1` (single isomer, unassigned) [Example 3], the IC50 at IDO1 [1] was above 1000 nM; at IDO1 [2], 6.99 nM.
Regarding `O=C(NC1(c2ccc3c(n2)CCCC3Oc2cccc(Cl)c2)CC1)c1ccc(F)cc1` (stereo not drawn) [Example 1, N-(1-(5-(3-chlorophenoxy)-5,6,7,8-tetrahydroquinolin-2-yl)cyclopropyl)-4-fluorobenzamide], the figures for the IC50 at IDO1 [1] and on IDO1 [2] were 601 nM and 2.68 nM, respectively.

(Values after patent US11992489B2, “Substituted tetrahydroquinoline compounds as indoleamine 2,3-dioxygenase inhibitors” (Merck Sharp & Dohme LLC, priority 2018, dated 2024).)
